Measured values published in patent publication US8710233B2 (Gruenenthal GmbH, priority 2005, dated 2014).
Where two headings read alike, the source gives them in different places.

Key:
Type in all cases: cell-based
[1] = biological target: T1, vanilloid receptor 1 (VR1/TRPV1) of the rat species (Rattus norvegicus, UniProt O35433); assay: FLIPR Ca2+ influx assay on rat dorsal root ganglia cells (pharmacological method I)
T1 construct: The spinal column is removed from decapitated rats; from tissue; host or cells: primary cells dissociated from rat dorsal root ganglia
T1 sequence (O35433 whole entry): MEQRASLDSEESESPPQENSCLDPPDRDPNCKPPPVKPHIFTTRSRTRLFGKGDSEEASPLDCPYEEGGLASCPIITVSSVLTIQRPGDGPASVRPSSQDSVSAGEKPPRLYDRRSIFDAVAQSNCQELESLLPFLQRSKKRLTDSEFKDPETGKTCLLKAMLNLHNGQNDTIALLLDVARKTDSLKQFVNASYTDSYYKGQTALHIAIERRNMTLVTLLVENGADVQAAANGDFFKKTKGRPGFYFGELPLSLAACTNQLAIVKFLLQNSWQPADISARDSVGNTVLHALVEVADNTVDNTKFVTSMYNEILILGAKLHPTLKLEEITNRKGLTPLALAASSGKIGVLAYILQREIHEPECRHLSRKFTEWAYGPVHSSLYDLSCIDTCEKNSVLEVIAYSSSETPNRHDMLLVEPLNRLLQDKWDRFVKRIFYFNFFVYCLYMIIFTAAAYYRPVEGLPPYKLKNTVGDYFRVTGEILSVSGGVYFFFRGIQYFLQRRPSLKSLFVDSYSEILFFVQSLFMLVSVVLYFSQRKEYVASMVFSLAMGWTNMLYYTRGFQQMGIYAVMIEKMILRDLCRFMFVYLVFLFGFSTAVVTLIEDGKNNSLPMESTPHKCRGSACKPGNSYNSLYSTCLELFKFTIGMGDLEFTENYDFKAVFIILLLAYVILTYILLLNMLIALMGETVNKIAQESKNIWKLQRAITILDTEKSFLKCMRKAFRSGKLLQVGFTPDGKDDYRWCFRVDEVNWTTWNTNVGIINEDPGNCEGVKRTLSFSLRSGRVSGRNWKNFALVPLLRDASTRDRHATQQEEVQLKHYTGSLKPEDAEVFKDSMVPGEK
Source text: I. Functional Investigation of the Vanilloid Receptor 1 (VR1/TRPV1 Receptor)
The agonistic or antagonistic action of the substances to be investigated on the vanilloid receptor 1 (VR1/TRPV1) of the rat species may be determined by the following assay. According to this assay, the influx of Ca^2+ through the receptor channel is quantified with the assistance of a Ca^2+-sensitive dye (type Fluo-4, Molecular Probes Europe BV, Leiden, Netherlands) in a Fluorescent Imaging Plate Reader (FLIPR, Molecular Devices, Sunnyvale, USA).
The spinal column is removed from decapitated rats and is placed directly in cold, i.e. located in an ice bath, HBSS buffer (Hank's buffered saline solution, Gibco Invitrogen GmbH, Karlsruhe, Germany) combined with 1 vol. % (percent by volume) of an AA solution (antibiotic/antimycotic solution, PAA, Pasching, Austria). The spinal column is cut open longitudinally and removed together with fasciae from the spinal canal. The dorsal root ganglia (DRGs) are then removed and in turn stored in cold HBSS buffer combined with 1 vol. % of an AA solution. The DRGs, from which all traces of blood and spinal nerves have been removed, are in each case transferred into 500 μL of cold collagenase type 2 (PAA, Pasching, Austria) and incubated for 35 minutes at 37° C. […] Once incubation is complete, the enzyme solution is carefully removed by pipette and the DRGs, which are left behind, are in each case combined with 500 μL of complete medium.
The DRGs are in each case repeatedly suspended, drawn by means of a syringe through […], no. 12 and no. 16 cannulas and transferred into 50 mL Falcon microtubes and each tube is made up to 15 mL with complete medium. The contents of each Falcon microtube are in each case filtered through a 70 μm Falcon filter insert and centrifuged for 10 minutes at 1200 revolutions and room temperature. The resultant pellet is in each case resuspended in 250 μL of complete medium and the cell count determined.
The number of cells in the suspension is adjusted to 3×10^5 per mL and a 150 μL portion of this suspension is in each case placed in a well of the cell culture plate which has been coated as described above.
The cells are then loaded with 2 μM Fluo-4 and 0.01 vol. % Pluronic F127 (Molecular Probes Europe BV, Leiden, Netherlands) in HBSS buffer (Hank's buffered saline solution, Gibco Invitrogen GmbH, Karlsruhe, Germany) for 30 min at 37° C., washed 3× with HBSS buffer and, after a further 15 minutes' incubation at room temperature, used for Ca^2+ measurement in the FLIPR assay. […] Quantification proceeds by measuring the highest fluorescence intensity (FC, fluorescence counts) over time.
The FLIPR protocol comprises 2 additions of substance. The compounds to be tested (10 μM) are firstly pipetted onto the cells and Ca^2+ influx is compared with the control (capsaicin 10 μM). This provides the percentage activation relative to the Ca^2+ signal after addition of 10 μM of capsaicin (CP). After 5 minutes' incubation, 100 nM of capsaicin are added and the influx of Ca^2+ is again determined.
Desensitising agonists and antagonists result in suppression of Ca^2+ influx. The percentage inhibition in comparison with the maximum achievable inhibition with 10 μM capsaicin is calculated.
Triplicate determinations (n═3) are performed and these are repeated in at least 3 independent experiments […].

vanilloid receptor (VR1) = biological target: T2, vanilloid receptor (VR1) (Homo sapiens, UniProt Q8NER1); assay: FLIPR Ca2+ influx assay on CHO K1 cells transfected with the VR1 gene (pharmacological method II)
T2 construct: expressed in transfected cells; host or cells: CHO K1 cells (ECACC), stably transfected
T2 sequence (Q8NER1 whole entry): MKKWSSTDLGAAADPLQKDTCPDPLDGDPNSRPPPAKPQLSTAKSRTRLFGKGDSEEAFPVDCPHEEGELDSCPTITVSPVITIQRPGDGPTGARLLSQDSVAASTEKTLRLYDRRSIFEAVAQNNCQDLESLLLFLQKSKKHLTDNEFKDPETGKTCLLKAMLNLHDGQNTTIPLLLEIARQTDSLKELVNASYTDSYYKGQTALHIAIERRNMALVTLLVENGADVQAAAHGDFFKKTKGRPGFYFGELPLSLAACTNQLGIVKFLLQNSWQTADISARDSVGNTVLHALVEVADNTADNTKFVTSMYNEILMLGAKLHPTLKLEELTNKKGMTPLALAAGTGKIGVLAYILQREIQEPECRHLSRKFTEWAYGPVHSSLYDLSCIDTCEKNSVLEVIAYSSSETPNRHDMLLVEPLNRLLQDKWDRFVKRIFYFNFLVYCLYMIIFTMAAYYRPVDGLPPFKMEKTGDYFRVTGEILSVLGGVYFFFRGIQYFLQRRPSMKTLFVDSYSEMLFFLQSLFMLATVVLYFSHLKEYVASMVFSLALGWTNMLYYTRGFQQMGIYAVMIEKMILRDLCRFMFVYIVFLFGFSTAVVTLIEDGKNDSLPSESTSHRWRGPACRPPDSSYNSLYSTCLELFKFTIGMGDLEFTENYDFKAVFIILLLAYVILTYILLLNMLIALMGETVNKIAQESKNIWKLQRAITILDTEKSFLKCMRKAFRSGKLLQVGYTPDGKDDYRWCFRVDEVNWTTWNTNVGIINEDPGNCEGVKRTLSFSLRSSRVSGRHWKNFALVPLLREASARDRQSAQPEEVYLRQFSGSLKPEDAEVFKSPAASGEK

VR1/TRPV1 receptor = VR1/TRPV1 receptor (Homo sapiens, UniProt Q8NER1); assay: IC50 (human) after pH stimulus; conditions: for inhibition at 1 µM: ne = no effect
Sequence of VR1/TRPV1 receptor (Q8NER1 whole entry): as above

[2] = table 4, capsaicin, read-out: Ki (rat) Cap.
[3] = table 4, capsaicin, read-out: Ki (human) Cap.
[4] = Table 2, displacement of capsaicin (100 nM), Cheng-Prusoff, read-out: Ki (rat)
[5] = Table 2, displacement of capsaicin (100 nM), Cheng-Prusoff, read-out: Ki (human)
[6] = read-out: inhibition in percent, IC50 (human) after pH stimulus

| Structure (SMILES) | Ki [1, 2] [nM] | Ki (vanilloid receptor (VR1); [3]) [nM] | IC50 (VR1/TRPV1 receptor; table 4) [nM] | Ki [1, 4] [nM] | Ki (vanilloid receptor (VR1); [5]) [nM] | also measured |
| --- | --- | --- | --- | --- | --- | --- |
| CC(C(=O)NCc1ccc(C(F)(F)F)nc1OCc1ccc(F)cc1)c1ccc(NS(C)(=O)=O)c(F)c1 (stereo not shown) [Example 175, N-[2-(4-fluoro-benzyloxy)-6-trifluoromethyl-pyridin-3-ylmethyl]-2-(3-fluoro-4-methylsulfonamido-phenyl)-propionamide] | 1.2 | 2.5 | 25 |  |  |  |
| CC(C(=O)NCc1ccc(C(F)(F)F)nc1-c1ccc(Cl)c(Cl)c1)c1ccc(NS(C)(=O)=O)c(F)c1 (stereo not shown) [Example 250, N-[2-(3,4-dichloro-phenyl)-6-trifluoromethyl-pyridin-3-ylmethyl]-2-(3-fluoro-4-methylsulfonamido-phenyl)-propionamide] | 0.9 | 0.9 |  |  |  | inhibition at 1 µM (VR1/TRPV1 receptor; [6]): 51%; inhibition at 10 µM (VR1/TRPV1 receptor; @ 10 μM, read-out: inhibition in percent, IC50 (human) after pH stimulus): 68% |
| CC(C(=O)NCc1ccc(C(F)(F)F)nc1N(C)c1ccccc1)c1ccc(NS(C)(=O)=O)c(F)c1 (stereo not shown) [Example 205, 2-(3-fluoro-4-methylsulfonamido-phenyl)-N-[2-(methyl-phenyl-amino)-6-trifluoromethyl-pyridin-3-ylmethyl]-propionamide] | 11.4 | 0.9 | 57.4 |  |  |  |
| CC(C(=O)NCc1ccc(C(F)(F)F)nc1OCc1ccccn1)c1ccc(NS(C)(=O)=O)c(F)c1 (stereo not shown) [Example 202, 2-(3-fluoro-4-methylsulfonamido-phenyl)-N-[2-(pyridin-2-ylmethoxy)-6-trifluoromethyl-pyridin-3-ylmethyl]-propionamide] |  | 29.5 |  |  |  | Ki ([1]; Ki (rat) Cap., table 4, capsaicin): 24.8 nM; inhibition at 0.1 µM (VR1/TRPV1 receptor; [6]): 16%; inhibition at 1 µM (VR1/TRPV1 receptor; [6]): 30% |
| CC(C(=O)NCc1ccc(C(C)(C)C)cc1OC1CCCC1)c1ccc(NS(C)(=O)=O)c(F)c1 (stereo not shown) [Example 155, N-(4-tert-butyl-2-cyclopentyloxy-benzyl)-2-(3-fluoro-4-methylsulfonamido-phenyl)-propionamide] | 0.8 | 1.8 | 145 |  |  |  |
| CC1CCN(c2nc(-c3ccc(F)cc3)ccc2CNC(=O)C(C)c2ccc(NS(C)(=O)=O)c(F)c2)CC1 (stereo not shown) [Example 184, 2-(3-fluoro-4-methylsulfonamido-phenyl)-N-[6′-(4-fluoro-phenyl)-4-methyl-3,4,5,6-tetrahydro-2H-[1,2′]bipyridinyl-3′-ylmethyl]-propionamide] | 77 |  |  |  |  |  |
| CCCCOc1nc(C(F)(F)F)ccc1CNC(=O)C(C)c1ccc(NS(C)(=O)=O)c(F)c1 (stereo not shown) [Example 19, N-((2-butoxy-6-(trifluoromethyl)pyridin-3-yl)methyl)-2-(3-fluoro-4-(methylsulfonamido)phenyl)propanamide] |  |  |  | 1 |  |  |
| Cc1cc(-c2nc(C(F)(F)F)ccc2CNC(=O)C(C)c2ccc(NS(C)(=O)=O)c(F)c2)ccc1F (stereo not shown) [Example 278, 2-(3-fluoro-4-methylsulfonamido-phenyl)-N-[2-(4-fluoro-3-methyl-phenyl)-6-trifluoromethyl-pyridin-3-ylmethyl]-propionamide] |  | 0.4 | 76 |  |  |  |
| CC(C)COc1nc(C(C)(C)C)ccc1CNC(=O)C(C)c1ccc(NS(C)(=O)=O)c(F)c1 (stereo not shown) [Example 353, N-(6-tert-butyl-2-isobutoxy-pyridin-3-ylmethyl)-2-(3-fluoro-4-methylsulfonamido-phenyl)-propionamide] |  | 0.6 |  |  |  | inhibition at 0.1 µM (VR1/TRPV1 receptor; [6]): 28%; inhibition at 1 µM (VR1/TRPV1 receptor; [6]): 25% |

Now from value to compound, other results behind:

| Ki [1, 2] [nM] | Ki (vanilloid receptor (VR1); [3]) [nM] | IC50 (VR1/TRPV1 receptor; table 4) [nM] | Ki [1, 4] [nM] | Ki (vanilloid receptor (VR1); [5]) [nM] | Structure (SMILES) | also measured |
| --- | --- | --- | --- | --- | --- | --- |
| 1 | 0.7 | 27.8 |  |  | CC(C(=O)NCc1ccc(C(F)(F)F)nc1N1CCCCCCC1)c1ccc(NS(C)(=O)=O)c(F)c1 (stereo not shown) [Example 128, N-(2-azocan-1-yl-6-trifluoromethyl-pyridin-3-ylmethyl)-2-(3-fluoro-4-methylsulfonamido-phenyl)-propionamide] |  |
|  |  |  | 4.3 | 1.3 | CC(C(=O)NCc1ccc(C(F)(F)F)nc1N1CCOCC1)c1ccc(NS(C)(=O)=O)c(F)c1 (stereo not shown) [Example 12, 2-(3-fluoro-4-(methylsulfonamido)phenyl)-N-((2-morpholino-6-(trifluoromethyl)pyridin-3-yl)methyl)propanamide] | IC50 (VR1/TRPV1 receptor; Table 2): 169 nM |
| 3.3 | 3 |  |  |  | Cc1cc(C(C)C(=O)NCc2ccc(C(F)(F)F)nc2N2CCN(c3ccccc3)CC2)ccc1NS(C)(=O)=O (stereo not shown) [Example 203, 2-(4-methylsulfonamido-3-methyl-phenyl)-N-[2-(4-phenyl-piperazin-1-yl)-6-trifluoromethyl-pyridin-3-ylmethyl]-propionamide] | inhibition at 0.1 µM (VR1/TRPV1 receptor; [6]): 0%; inhibition at 1 µM (VR1/TRPV1 receptor; [6]): 24% |
| 0.7 | 0.5 | 9.7 |  |  | CC(C(=O)NCc1ccc(C(F)(F)F)nc1-c1cccc(Cl)c1)c1ccc(NS(C)(=O)=O)c(F)c1 (stereo not shown) [Example 149, N-[2-(3-chloro-phenyl)-6-trifluoromethyl-pyridin-3-ylmethyl]-2-(3-fluoro-4-methylsulfonamido-phenyl)-propionamide] |  |
| 0.7 | 0.6 |  |  |  | CC(C(=O)NCc1ccc(C(F)(F)F)nc1CCC(C)(C)C)c1ccc(NS(C)(=O)=O)c(F)c1 (stereo not shown) [Example 263, N-[2-(3,3-dimethyl-butyl)-6-trifluoromethyl-pyridin-3-ylmethyl]-2-(3-fluoro-4-methylsulfonamido-phenyl)-propionamide] | inhibition at 1 µM (VR1/TRPV1 receptor; [6]): 63% |
|  |  |  | 2.4 | 1.7 | CC(C(=O)NCc1ccc(C(F)(F)F)cc1N1CCCC1)c1ccc(NS(C)(=O)=O)c(Br)c1 (stereo not shown) [Example 69, 2-(3-bromo-4-(methylsulfonamido)phenyl)-N-(2-(pyrrolidin-1-yl)-4-(trifluoromethyl)benzyl)propanamide] |  |
|  |  |  | 5.1 | 3.2 | CC(C(=O)NCc1ccc(C(F)(F)F)nc1N1CCCCC1)c1ccc(NS(C)(=O)=O)c(Br)c1 (stereo not shown) [Example 67, 2-(3-bromo-4-(methylsulfonamido)phenyl)-N-((2-(piperidin-1-yl)-6-(trifluoromethyl)pyridin-3-yl)methyl)propanamide] |  |
| 0.5 |  | 39.6 |  |  | CC1CC(C)CN(c2nc(C(F)(F)Cl)ccc2CNC(=O)C(C)c2ccc(NS(C)(=O)=O)c(F)c2)C1 (stereo not shown) [Example 187, N-[6′-(chloro-difluoro-methyl)-3,5-dimethyl-3,4,5,6-tetrahydro-2H-[1,2′]bipyridinyl-3′-ylmethyl]-2-(3-fluoro-4-methylsulfonamido-phenyl)-propionamide] |  |
|  |  |  | 6.3 | 2.3 | CC(C(=O)NCc1ccc(C(F)(F)F)nc1N1CCCCC1)c1ccc(NS(C)(=O)=O)c(Cl)c1 (stereo not shown) [Example 64, 2-(3-chloro-4-(methylsulfonamido)phenyl)-N-((2-(piperidin-1-yl)-6-(trifluoromethyl)pyridin-3-yl)methyl)propanamide] |  |
|  |  |  | 36.5 | 4.2 | CC(C(=O)NCc1ccc(C(F)(F)F)nc1N1CCCC1)c1ccc(NS(C)(=O)=O)c(Cl)c1 (stereo not shown) [Example 65, 2-(3-chloro-4-(methylsulfonamido)phenyl)-N-((2-(pyrrolidin-1-yl)-6-(trifluoromethyl)pyridin-3-yl)methyl)propanamide] |  |
|  |  |  | 3.7 | 2.9 | CC(C(=O)NCc1ccc(C(F)(F)F)cc1N1CCCCC1)c1ccc(NS(C)(=O)=O)c(Cl)c1 (stereo not shown) [Example 66, 2-(3-chloro-4-(methylsulfonamido)phenyl)-N-(2-(piperidin-1-yl)-4-(trifluoromethyl)benzyl)propanamide] |  |
